The values that follow are results of earlier work, collected in patent US20070196463A1, “Enteric Soft Gelatin Capsule Containing Esomerpazole And Method Of Preparation” (Natco Pharma Limited, priority 2004, published 2007).

The structures appear in SMILES notation.

For `COc1ccc2nc([S@@+]([O-])Cc3ncc(C)c(OC)c3C)[nH]c2c1` [esomeprazole], the “activity of the enantiomer in human testing” value (human testing of enantiomers of omeprazole) is on record as “more active”. Moreover, the inter-individual variability entry (human, due to more consistent pharmacokinetics) is recorded as “reduced”.
